Measurements published in the supplement of paper PMC4237247.

What was measured:
HeLa [1] = experiment: cell viability IC50 (CellTiter-Glo, 72 h); higher = less potent
Procedure: (§1)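 HeLa cells were treated with a titration of each re-synthesised mitotic inhibitor. Mitotic arrest IC50 comes from a 20 h titration (190 pM to 10 uM) read as % G2/M by Vybrant DyeCycle Green cell cycle profiling on an Acumen cytometer. Cell viability IC50 comes from a 72 h titration (12.2 nM to 100 uM) read by CellTiter-Glo ATP luminescence, with curves fitted in CDD software. The maximal % of cells arrested in mitosis within the titration is also reported.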

HeLa [2] = experiment: mitotic arrest IC50 (G2/M DNA content, 20 h); higher = less potent
Procedure: as §1

HeLa [3] = experiment: maximal percent of cells arrested in mitosis within titration; higher = stronger mitotic arrest; settings: 20 h
Procedure: as §1

cell viability IC50 (HeLa [1]) [nM]	mitotic arrest IC50 (HeLa [2]) [nM]	Structure (SMILES)	maximal percent (HeLa [3]) [%]
222	202	COC(=O)Nc1nc2cc(C(=O)c3ccccc3)ccc2[nH]1 [Mebendazole]	76.6
12500	9120	O=C(CSc1nc2ccc([N+](=O)[O-])cc2s1)c1ccc(Cl)cc1	61.7
2270	2650	O=C(O)c1ccccc1SC1CC(=O)N(c2ccc(Br)cc2)C1=O (stereo not drawn)	70.4
121	88.5	CC(=O)Nc1ccc(Nc2nc(-c3c(C)nc4ccccn34)cs2)cc1	65.3
470	539	COc1cc(-c2onc3ccc(Cl)cc23)cc(OC)c1OC	54.8
45.6	129	COC(=O)Nc1nc2cc(C(=O)c3cccs3)ccc2[nH]1 [Nocodazole]	68.5
720	285	O=c1[nH]c(/C=C/c2ccccc2F)nc2ccccc12	49.9
6630	4780	CCN(CC)CCN1C(=O)C(=O)C(=C(O)c2ccccc2)C1c1ccccc1F (stereo not drawn)	55.8
27.3	37.1	CC(=O)O[C@H]1C(=O)[C@@]2(C)[C@H]([C@H](OC(=O)c3ccccc3)[C@]3(O)C[C@H](OC(=O)[C@H](O)[C@@H](NC(=O)c4ccccc4)c4ccccc4)C(C)=C1C3(C)C)[C@]1(OC(C)=O)CO[C@@H]1C[C@@H]2O [Taxol]	74
389	279	COC(=O)Nc1nc2cc(Sc3ccccc3)ccc2[nH]1 [Fenbendazole]	62.5
1160	1350	O=c1[nH]c(/C=C/c2ccccc2)nc2ccccc12	61
